Test results from US10954201B2, “Two-electron donating phenothiazines and use thereof” (University of Kentucky Research Foundation, priority 2016, dated 2021).
Converted amounts (≈) assume the structure as drawn. Where two headings read alike, the source gives them in different places.

Key:
[1] = Cyclic voltammetry, 10 mM analyte in 0.5M LiPF6 in PC (FIG. 1, Table 1); type: physicochemical; conditions: scan rate 100 mV/s
Procedure: FIG. 1 is a graph showing cyclic voltammograms of DMeOEPT, DMeOMEPT, and DMeOMEEPT, performed with 10 mM analyte in 0.5M LiPF6 in PC at a scan rate of 100 mV/s.

[2] = Solubility in electrolyte formulations; type: physicochemical; conditions: for solubility compared to the N-ethyl derivative: while retaining stable redox chemistry
Excerpt: Additionally, in some embodiments, the N-substituted phenothiazine compounds described herein provide increased solubility in electrolyte formulations as compared to existing compounds, such as 2,5-di-tert-butyl-1,4-bis(2-methoxyethoxy)benzene (DBBB). In one embodiment, the glyme substituents provide increased solubility in electrolyte formulations as compared to other derivatives. […] In another embodiment, this solubility in organic solvents permits the use of renewable earth-abundant elements.
In some embodiments, the N-substituted phenothiazine compounds described herein provide a multi-electron donor including high stability and solubility in catholyte formulations. In another embodiment, the catholyte material provides a multi-electron donor that retains high chemical stability when charged. […] For example, when formulated at its solubility limit, diglyme-dimethoxyphenothiazine may provide approximately 5 times the volumetric energy of DBBB, which has an energy density of 10 Ah/L when formulated as a catholyte, and is limited by its solubility (0.4M) and redox chemistry, acting as a single electron donor.

[3] = Oxidation potentials vs. ferrocenium/ferrocene in 0.5M TEATFSI/acetonitrile; type: physicochemical
Excerpt: With regard to Compound IV, oxidation potentials are 0.035 V and 0.625 V vs. ferrocenium/ferrocene in 0.5M TEATFSI/acetonitrile.

[4] = DBBB formulated as a catholyte; cited from earlier work

Row | Compound | 1st Eox vs. Li (half-wave first oxidation potential) [1] [V] | 2nd Eox vs. Li (half-wave second oxidation potential) [1] [V] | solubility [2] | melting point [°C] | oxidation potential (first) vs. ferrocenium/ferrocene [3] [V] | oxidation potential (second) vs. ferrocenium/ferrocene [3] [V] | solubility [4] [M] | solubility compared to the N-ethyl derivative [2]
1 | CCN1c2ccc(OC)cc2Sc2cc(OC)ccc21 [Compound I, 3,7-dimethoxy-N-ethyl-phenothiazine] | 3.38 | 3.94 | about 100 mM | 115 to 116 | – | – | – | –
2 | CCN1c2ccc(OCCOCCOC)cc2Sc2cc(OCCOCCOC)ccc21 [Compound IV] | – | – | – | – | 0.035 | 0.625 | – | –
3 | COCCOc1cc(C(C)(C)C)c(OCCOC)cc1C(C)(C)C [DBBB, 2,5-di-tert-butyl-1,4-bis(2-methoxyethoxy)benzene] | – | – | – | – | – | – | 0.4 (≈ 135 mg/mL) | –
4 | COCCN1c2ccc(OC)cc2Sc2cc(OC)ccc21 [II, 3,7-dimethoxy-N-methoxyethyl-phenothiazine] | 3.42 | 3.96 | – | 108 to 110 | – | – | – | higher solubility
5 | COCCOCCN1c2ccc(OC)cc2Sc2cc(OC)ccc21 [III, 3,7-dimethoxy-N-((2-methoxy)ethoxy)ethyl-phenothiazine] | 3.41 | 3.98 | – | – | – | – | – | higher solubility
